ChEMBL document CHEMBL4665709, “Rational Avoidance of Protease Cleavage Sites and Symmetrical End-Tagging Significantly Enhances the Stability and Therapeutic Potential of Antimicrobial Peptides” (J Med Chem, 2020)
In brackets after ≈: the same amount, converted by molar mass. Where a SMILES comes first, the peptide text is derived from it.

Legend:
[1] = Therapeutic index, ratio of MHC for human RBC to geometric mean of peptide MIC for Streptococcus agalactiae H92; format: toxicity; conditions: human red blood cells (RBC), read-out: TI
[2] = Therapeutic index, ratio of MHC for human RBC to geometric mean of peptide MIC for Staphylococcus epidermidis ATCC 12228; format: toxicity; conditions: human red blood cells (RBC), read-out: TI
[3] = Therapeutic index, ratio of MHC for human RBC to geometric mean of peptide MIC for methicillin-resistant Staphylococcus aureus 43300; format: toxicity; conditions: human red blood cells (RBC), read-out: TI
[4] = Therapeutic index, ratio of MHC for human RBC to geometric mean of peptide MIC for Enterococcus faecalis ATCC 29212; format: toxicity; conditions: human red blood cells (RBC), read-out: TI
[5] = Therapeutic index, ratio of MHC for human RBC to geometric mean of peptide MIC for Staphylococcus aureus ATCC 29213; format: toxicity; conditions: human red blood cells (RBC), read-out: TI
[6] = Therapeutic index, ratio of MHC for human RBC to geometric mean of peptide MIC for Staphylococcus aureus 11011; format: toxicity; conditions: human red blood cells (RBC), read-out: TI
[7] = Therapeutic index, ratio of MHC for human RBC to geometric mean of peptide MIC for Salmonella pullorum 7913; format: toxicity; conditions: human red blood cells (RBC), read-out: TI
[8] = Therapeutic index, ratio of MHC for human RBC to geometric mean of peptide MIC for Salmonella typhimurium 7731; format: toxicity; conditions: human red blood cells (RBC), read-out: TI
[9] = Therapeutic index, ratio of MHC for human RBC to geometric mean of peptide MIC for Salmonella choleraesuis 503; format: toxicity; conditions: human red blood cells (RBC), read-out: TI
[10] = Therapeutic index, ratio of MHC for human RBC to geometric mean of peptide MIC for Escherichia coli UB1005; format: toxicity; conditions: human red blood cells (RBC), read-out: TI
[11] = Therapeutic index, ratio of MHC for human RBC to geometric mean of peptide MIC for Salmonella typhimurium 14028; format: toxicity; conditions: human red blood cells (RBC), read-out: TI
[12] = Therapeutic index, ratio of MHC for human RBC to geometric mean of peptide MIC for Escherichia coli ATCC 25922; format: toxicity; conditions: human red blood cells (RBC), read-out: TI
Staphylococcus aureus [13] = assay: Antibacterial activity against Staphylococcus aureus ATCC 29213 after 18 to 24 hrs by CLSI-based broth microdilution method; format: functional; conditions: time hrs 18-24
Staphylococcus aureus [14] = assay: Antibacterial activity against Staphylococcus aureus 11011 after 18 to 24 hrs by CLSI-based broth microdilution method; format: functional; conditions: time hrs 18-24
Escherichia coli [15] = assay: Antibacterial activity against Escherichia coli ATCC 25922 after 18 to 24 hrs by CLSI-based broth microdilution method; format: functional; conditions: time hrs 18-24
Escherichia coli [16] = assay: Antibacterial activity against Escherichia coli UB1005 after 18 to 24 hrs by CLSI-based broth microdilution method; format: functional; conditions: time hrs 18-24
Salmonella typhimurium [17] = assay: Antibacterial activity against Salmonella typhimurium 14028 after 18 to 24 hrs by CLSI-based broth microdilution method; format: functional, Salmonella enterica subsp. enterica serovar Typhimurium; conditions: Salmonella enterica, time hrs 18-24
Salmonella typhimurium [18] = assay: Antibacterial activity against Salmonella typhimurium 7731 after 18 to 24 hrs by CLSI-based broth microdilution method; format: functional, Salmonella enterica subsp. enterica serovar Typhimurium; conditions: Salmonella enterica, time hrs 18-24
[19] = Antibacterial activity against Salmonella pullorum 7913 after 18 to 24 hrs by CLSI-based broth microdilution method; format: functional, Salmonella enterica subsp. enterica serovar Pullorum; conditions: Salmonella enterica, time hrs 18-24
Salmonella enterica = assay: Antibacterial activity against Salmonella choleraesuis 503 after 18 to 24 hrs by CLSI-based broth microdilution method; format: functional; conditions: time hrs 18-24
[20] = system: Staphylococcus epidermidis; assay: Antibacterial activity against Staphylococcus epidermidis ATCC 12228 after 18 to 24 hrs by CLSI-based broth microdilution method; format: functional; conditions: time hrs 18-24
Enterococcus faecalis = assay: Antibacterial activity against Enterococcus faecalis ATCC 29212 after 18 to 24 hrs by CLSI-based broth microdilution method; format: functional; conditions: time hrs 18-24
Staphylococcus aureus [21] = assay: Antibacterial activity against methicillin-resistant Staphylococcus aureus 43300 after 18 to 24 hrs by CLSI-based broth microdilution method; format: functional; conditions: time hrs 18-24
Streptococcus agalactiae = assay: Antibacterial activity against Streptococcus agalactiae H92 after 18 to 24 hrs by CLSI-based broth microdilution method; format: functional; conditions: time hrs 18-24
Erythrocyte = assay: Hemolytic activity in human RBC assessed as hemolysis; format: ADME, cell-based
[22] = Hemolytic activity in human RBC assessed as hemolysis at 1 to 128 uM relative to control; format: ADME, cell-based, Erythrocyte; conditions: human red blood cells (RBC), dose 1-128 µM, read-out: Activity
[23] = Cytotoxicity against mouse RAW264.7 cells assessed as cell viability at 128 uM by MTT assay relative to control; format: cell-based; conditions: read-out: Activity
[24] = Cytotoxicity against HEK-293T cells assessed as cell viability at 128 uM by MTT assay relative to control; format: cell-based; conditions: human, read-out: Activity

| SMILES | selectivity ratio [1] | selectivity ratio [2] | selectivity ratio [3] | selectivity ratio [4] | selectivity ratio [5] | selectivity ratio [6] | selectivity ratio [7] | selectivity ratio [8] | selectivity ratio [9] | selectivity ratio [10] | selectivity ratio [11] | selectivity ratio [12] | MIC (Staphylococcus aureus [13]) | MIC (Staphylococcus aureus [14]) | MIC (Escherichia coli [15]) | MIC (Escherichia coli [16]) | MIC (Salmonella typhimurium [17]) | MIC (Salmonella typhimurium [18]) | MIC [19] | MIC (Salmonella enterica) | further results |
| --- | --- | --- | --- | --- | --- | --- | --- | --- | --- | --- | --- | --- | --- | --- | --- | --- | --- | --- | --- | --- | --- |
| CC[C@H](C)[C@H](N)C(=O)N[C@H](C(=O)N[C@@H](CS)C(=O)N[C@@H](CCCNC(=N)N)C(=O)N[C@@H](CCCCN)C(=O)N1CCC[C@H]1C(=O)N[C@H](C(=O)N[C@H](C(=O)N[C@@H](CS)C(=O)N[C@@H](CCCNC(=N)N)C(=O)N[C@@H](CCCCN)C(=O)N1CCC[C@H]1C(=O)N[C@H](C(=O)N[C@H](C(N)=O)[C@@H](C)CC)[C@@H](C)CC)[C@@H](C)CC)[C@@H](C)CC)[C@@H](C)CC (H-IICRKPIICRKPII-NH2) | 2 | 2 | 2 | 2 | 2 | 2 | 4 | 4 | 4 | 4 | 4 | 4 | > 64 µM | > 64 µM | 16 µM (≈ 26.6 µg/mL) | 16 µM (≈ 26.6 µg/mL) | 32 µM (≈ 53.3 µg/mL) | 32 µM (≈ 53.3 µg/mL) | > 64 µM | > 64 µM | MIC [20]: > 64 µM; MIC (Enterococcus faecalis): > 64 µM; MIC (Staphylococcus aureus [21]): > 64 µM; MIC (Streptococcus agalactiae): > 64 µM; MHC (Erythrocyte): > 128 µM; hemolysis at up to 128 µM [22]: < 5%; viability at 128 µM [23]: > 90%; viability at 128 µM [24]: > 90% |
| CC[C@H](C)[C@H](N)C(=O)N[C@H](C(=O)N[C@@H](CS)C(=O)N[C@@H](CCCNC(=N)N)C(=O)N[C@@H](CCCCN)C(=O)N1CCC[C@H]1C(=O)N[C@H](C(=O)N[C@H](C(=O)N[C@@H](CS)C(=O)N[C@@H](CCCNC(=N)N)C(=O)N[C@@H](CCCCN)C(=O)N1CCC[C@H]1C(=O)N[C@H](C(=O)N[C@H](C(=O)N[C@@H](CS)C(=O)N[C@@H](CCCNC(=N)N)C(=O)N[C@@H](CCCCN)C(=O)N1CCC[C@H]1C(=O)N[C@H](C(=O)N[C@H](C(N)=O)[C@@H](C)CC)[C@@H](C)CC)[C@@H](C)CC)[C@@H](C)CC)[C@@H](C)CC)[C@@H](C)CC)[C@@H](C)CC (H-IICRKPIICRKPIICRKPII-NH2) | 2 | 2 | 2 | 2 | 2 | 2 | 14.2 | 14.2 | 14.2 | 14.2 | 14.2 | 14.2 | > 64 µM | > 64 µM | 4 µM (≈ 9.5 µg/mL) | 4 µM (≈ 9.5 µg/mL) | 8 µM (≈ 19 µg/mL) | 8 µM (≈ 19 µg/mL) | 32 µM (≈ 76 µg/mL) | 16 µM (≈ 38 µg/mL) | MIC [20]: 64 µM (≈ 152 µg/mL); MIC (Enterococcus faecalis): > 64 µM; MIC (Staphylococcus aureus [21]): 64 µM (≈ 152 µg/mL); MIC (Streptococcus agalactiae): 64 µM (≈ 152 µg/mL); MHC (Erythrocyte): > 128 µM; hemolysis at up to 128 µM [22]: < 5%; viability at 128 µM [23]: > 90%; viability at 128 µM [24]: > 90% |
| CC[C@H](C)[C@H](N)C(=O)N[C@H](C(=O)N[C@H](C(=O)N[C@@H](CS)C(=O)N[C@@H](CCCNC(=N)N)C(=O)N[C@@H](CCCCN)C(=O)N1CCC[C@H]1C(=O)N[C@H](C(=O)N[C@H](C(=O)N[C@@H](CS)C(=O)N[C@@H](CCCNC(=N)N)C(=O)N[C@@H](CCCCN)C(=O)N1CCC[C@H]1C(=O)N[C@H](C(=O)N[C@H](C(=O)N[C@@H](CS)C(=O)N[C@@H](CCCNC(=N)N)C(=O)N[C@@H](CCCCN)C(=O)N1CCC[C@H]1C(=O)N[C@H](C(=O)N[C@H](C(=O)N[C@@H](CS)C(=O)N[C@@H](CCCNC(=N)N)C(=O)N[C@@H](CCCCN)C(=O)N1CCC[C@H]1C(=O)N[C@H](C(=O)N[C@H](C(=O)N[C@@H](CS)C(=O)N[C@@H](CCCNC(=N)N)C(=O)N[C@@H](CCCCN)C(=O)N1CCC[C@H]1C(=O)N[C@H](C(=O)N[C@H](C(=O)N[C@H](C(N)=O)[C@@H](C)CC)[C@@H](C)CC)[C@@H](C)CC)[C@@H](C)CC)[C@@H](C)CC)[C@@H](C)CC)[C@@H](C)CC)[C@@H](C)CC)[C@@H](C)CC)[C@@H](C)CC)[C@@H](C)CC)[C@@H](C)CC)[C@@H](C)CC (H-IIICRKPIICRKPIICRKPIICRKPIICRKPIII-NH2) | 2 | 2 | 2 | 2 | 2 | 2 | 32 | 32 | 32 | 32 | 32 | 32 | > 64 µM | > 64 µM | 4 µM (≈ 16.1 µg/mL) | 2 µM (≈ 8.05 µg/mL) | 4 µM (≈ 16.1 µg/mL) | 4 µM (≈ 16.1 µg/mL) | 8 µM (≈ 32.2 µg/mL) | 4 µM (≈ 16.1 µg/mL) | MIC [20]: > 64 µM; MIC (Enterococcus faecalis): > 64 µM; MIC (Staphylococcus aureus [21]): > 64 µM; MIC (Streptococcus agalactiae): > 64 µM; MHC (Erythrocyte): > 128 µM; hemolysis at up to 128 µM [22]: < 5%; viability at 128 µM [23]: > 90%; viability at 128 µM [24]: > 90% |
| CC[C@H](C)[C@H](N)C(=O)N[C@H](C(=O)N[C@H](C(=O)N[C@@H](CS)C(=O)N[C@@H](CCCNC(=N)N)C(=O)N[C@@H](CCCCN)C(=O)N1CCC[C@H]1C(=O)N[C@H](C(=O)N[C@H](C(=O)N[C@@H](CS)C(=O)N[C@@H](CCCNC(=N)N)C(=O)N[C@@H](CCCCN)C(=O)N1CCC[C@H]1C(=O)N[C@H](C(=O)N[C@H](C(=O)N[C@H](C(N)=O)[C@@H](C)CC)[C@@H](C)CC)[C@@H](C)CC)[C@@H](C)CC)[C@@H](C)CC)[C@@H](C)CC)[C@@H](C)CC (H-IIICRKPIICRKPIII-NH2) | 2 | 2 | 2 | 2 | 2 | 2 | 6.35 | 6.35 | 6.35 | 6.35 | 6.35 | 6.35 | > 64 µM | > 64 µM | 8 µM (≈ 15.1 µg/mL) | 8 µM (≈ 15.1 µg/mL) | 32 µM (≈ 60.5 µg/mL) | 32 µM (≈ 60.5 µg/mL) | 32 µM (≈ 60.5 µg/mL) | 32 µM (≈ 60.5 µg/mL) | MIC [20]: > 64 µM; MIC (Enterococcus faecalis): > 64 µM; MIC (Staphylococcus aureus [21]): > 64 µM; MIC (Streptococcus agalactiae): 64 µM (≈ 121 µg/mL); MHC (Erythrocyte): > 128 µM; hemolysis at up to 128 µM [22]: < 5%; viability at 128 µM [23]: > 90%; viability at 128 µM [24]: > 90% |
